Publication PMC12136037, “Type II kinase inhibitors that target Parkinson’s disease–associated LRRK2” (Science Advances, 2025)
Values joined by “and” are separate entries in the source; they are usually repeats but may differ in a detail not shown here. Equal values may be shown once.

Target: T1, LRRK2^RCKW (Homo sapiens, UniProt Q5S007)
T1 construct: LRRK2 R1327 to E2527; His6-Z-tag (TEV cleavable) (N, cleaved yes); host or cells: Sf9 insect cells (baculovirus)
T1 sequence (Q5S007 1327-2527): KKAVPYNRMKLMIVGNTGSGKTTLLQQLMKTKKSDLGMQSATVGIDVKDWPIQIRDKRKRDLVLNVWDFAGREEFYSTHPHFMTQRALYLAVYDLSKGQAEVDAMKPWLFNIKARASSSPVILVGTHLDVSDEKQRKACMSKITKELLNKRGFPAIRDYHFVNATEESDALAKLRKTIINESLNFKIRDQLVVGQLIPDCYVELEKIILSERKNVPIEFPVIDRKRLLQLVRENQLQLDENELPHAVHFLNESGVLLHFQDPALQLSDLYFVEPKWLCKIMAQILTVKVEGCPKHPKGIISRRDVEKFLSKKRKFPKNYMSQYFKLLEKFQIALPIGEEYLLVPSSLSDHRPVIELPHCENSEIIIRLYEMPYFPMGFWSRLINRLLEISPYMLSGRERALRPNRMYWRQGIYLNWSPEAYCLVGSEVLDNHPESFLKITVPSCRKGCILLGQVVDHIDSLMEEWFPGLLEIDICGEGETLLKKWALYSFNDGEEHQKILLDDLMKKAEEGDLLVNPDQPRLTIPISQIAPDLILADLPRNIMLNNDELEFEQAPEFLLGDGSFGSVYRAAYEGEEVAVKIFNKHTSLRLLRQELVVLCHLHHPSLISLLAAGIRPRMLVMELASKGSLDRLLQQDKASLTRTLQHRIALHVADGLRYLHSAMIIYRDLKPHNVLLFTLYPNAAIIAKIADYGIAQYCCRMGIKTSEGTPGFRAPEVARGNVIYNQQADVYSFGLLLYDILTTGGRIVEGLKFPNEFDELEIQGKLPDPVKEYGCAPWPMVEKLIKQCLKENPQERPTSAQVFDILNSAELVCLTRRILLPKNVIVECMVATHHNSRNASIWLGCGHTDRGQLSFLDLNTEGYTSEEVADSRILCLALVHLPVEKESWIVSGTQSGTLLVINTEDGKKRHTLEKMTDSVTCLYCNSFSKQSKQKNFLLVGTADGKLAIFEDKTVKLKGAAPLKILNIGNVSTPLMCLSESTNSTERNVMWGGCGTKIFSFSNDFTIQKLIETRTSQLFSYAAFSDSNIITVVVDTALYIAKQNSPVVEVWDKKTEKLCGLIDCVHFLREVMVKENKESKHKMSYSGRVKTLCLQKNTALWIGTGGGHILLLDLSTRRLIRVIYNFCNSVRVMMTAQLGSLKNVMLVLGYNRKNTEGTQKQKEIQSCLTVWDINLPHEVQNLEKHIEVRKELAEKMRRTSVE
Test: Biochemical LRRK2 activity assay (PhosphoSense, AssayQuant SOX peptide AQT0615)
Settings: for IC50: LRRK2^RCKW kinase activity, in vitro; for normalized response (LRRK2 activity): normalized to 0% (no kinase) and 100% (no inhibitor) control, two singlicate columns per compound
Description: Two wells per compound were used as 0% (without protein and compound) and 100% (without compound) control. […] The 0% control wells were filled with 10 μl of pure reaction buffer. With the ECHO, 5 nl of 100 mM ATP was pipetted into each well, the plates were centrifuged at 1500g for 2 min, and the reaction was incubated at room temperature for 4 hours. The fluorescence of the SOX-peptide after 360-nm excitation was measured at 487-nm emission with a PHERAstar plate reader (BMG Labtech). The IC50 values were calculated from a nonlinear regression of the log[inhibitor] versus the normalized response with GraphPad Prism 8 (www.graphpad.com/, RRID:SCR_002798).

| SMILES | IC50 | normalized response (LRRK2 activity) (log[inhibitor(mol)] -4.82391) | normalized response (LRRK2 activity) (log[inhibitor(mol)] -5.12494) | normalized response (LRRK2 activity) (log[inhibitor(mol)] -5.60206) | normalized response (LRRK2 activity) (log[inhibitor(mol)] -6.90309) | normalized response (LRRK2 activity) (log[inhibitor(mol)] -7.30103) | normalized response (LRRK2 activity) (log[inhibitor(mol)] -7.60206) | normalized response (LRRK2 activity) (log[inhibitor(mol)] -8.09691) | normalized response (LRRK2 activity) (log[inhibitor(mol)] -8.61979) | normalized response (LRRK2 activity) (log[inhibitor(mol)] -9.09691) | normalized response (LRRK2 activity) (log[inhibitor(mol)] -9.39794) | normalized response (LRRK2 activity) (log[inhibitor(mol)] -6.30103) |
| --- | --- | --- | --- | --- | --- | --- | --- | --- | --- | --- | --- | --- |
| Cc1cc(NC(=O)C2(C(=O)Nc3cccc(-c4c[nH]c5ncnc(N6CCOCC6)c45)c3)CC2)ccc1F [Compound 20] | 110 ± 11 nM | -5.58% and -14.6884% | -12.9576% and -4.07% | -8.508% and -7.489% | 42.2259% and 43.1588% | 74.6695% and 77.6217% | 88.2582% and 90.1977% | 89.9215% and 96.544% | 106.119% and 94.9298% | 105.603% and 97.4708% | 68.2188% and 102.467% | – |
| O=C(Nc1cccc(-c2c[nH]c3ncnc(N4CCOCC4)c23)c1)C1(C(=O)Nc2ccc(F)cc2F)CC1 [Compound 23] | 159 ± 0.2 nM | -26.6261% and -31.2355% | -19.0277% and -21.4214% | -16.2351% and -13.5898% | 59.976% and 57.9812% | 81.7768% and 85.349% | 93.6348% and 95.0771% | 95.5743% and 95.9609% | 101.288% and 95.0587% | 106.438% and 96.5808% | 103.437% and 104.087% | 3.675% and 3.246% |
| O=C(Nc1ccccc1)C1(C(=O)Nc2cccc(-c3c[nH]c4ncnc(N5CCOCC5)c34)c2)CC1 [Compound 12] | 350 ± 25 nM | 0.1647% and -9.791% | -4.574% and -1.793% | 1.386% and 6.849% | 76.566% and 79.9356% | 91.6032% and 94.9482% | 99.2139% and 97.704% | 99.3121% and 101.951% | 104.222% and 110.035% | 103.486% and 106.278% | 106.585% and 109.47% | 35.45% and 38.9177% |
| COc1cc2c(Oc3ccc(NC(=O)C4(C(=O)Nc5ccc(F)cc5)CC4)cc3F)ccnc2cc1OCCCN1CCOCC1 [Foretinib, reference compound] | – | – | -8.307% and -10.693% | -1.8523% and 5.65% | 69.5315% and 73.0571% | 85.8697% and 90.8136% | 93.5528% and 93.9107% | 88.4499% and 91.6177% | 92.1788% and 92.8283% | 95.8547% and 84.8889% | 98.1654% and 60.9912% | 28.3235% and 31.8978% |
| Cc1ccc(NC(=O)C2(C(=O)Nc3cccc(-c4c[nH]c5ncnc(N6CCOCC6)c45)c3)CC2)cc1 [Compound 14] | 156 ± 33 nM | – | -6.986% and -9.956% | 21.8981% and 20.2655% | 58.2022% and 57.0299% | 81.6541% and 110.82% | 85.6497% and 54.8081% | 91.8548% and 92.1679% | 98.0477% and 97.5874% | 93.5857% and 99.2323% | 96.7834% and 110.495% | 13.87% and 15.03% |
| O=C(Nc1ccc(Cl)cc1)C1(C(=O)Nc2cccc(-c3c[nH]c4ncnc(N5CCOCC5)c34)c2)CC1 [Compound 13] | 717 ± 14 nM | – | – | 15.0853% and 13.379% | 95.7707% and 92.6957% | 101.552% and 99.1095% | 102.657% and 105.64% | 106.745% and 99.576% | 101.35% and 101.951% | 104.075% and 108.101% | 110.679% and 104.597% | 62.4187% and 38.0646% |
| O=C(Nc1cccc(-c2c[nH]c3ncnc(N4CCOCC4)c23)c1)C1(C(=O)Nc2ccc(F)c(Cl)c2)CC1 [Compound 18] | 152 ± 44 nM | – | -12.1904% and -14.2894% | -3.604% and -4.745% | 53.6603% and 67.7094% | 89.4919% and 81.5068% | – | 92.5361% and 84.907% | 95.9241% and 92.0144% | 91.7935% and 96.8386% | 94.1994% and 95.2858% | – |
| O=C(Nc1cccc(-c2c[nH]c3ncnc(N4CCOCC4)c23)c1)c1cccn(-c2ccc(F)cc2)c1=O [Compound 4] | 167 ± 4 nM | 9.714% and 10.3287% | – | – | 58.3207% and 57.3774% | 76.6433% and 88.9388% | 88.7743% and 91.0393% | 93.6662% and 93.1068% | 96.9841% and 102.616% | 103.96% and 100.631% | 95.5418% and 116.272% | 8.354% and 15.3302% |
| O=C(Nc1ccc(F)cc1)C1(C(=O)Nc2cccc(-c3c[nH]c4ncnc(N5CCOCC5)c34)c2)CC1 [Compound 2] | 185 ± 10 nM | -3.585% and -13.2094% | -9.6118% and -10.6428% | -5.033% and -3.426% | 61.3205% and 61.6605% | 88.0559% and 79.7364% | 100.582% and 98.3497% | 94.604% and 97.0225% | 106.516% and 96.1066% | 107.272% and 96.9347% | 103.198% and 102.243% | 19.2953% and 18.2204% |
| Cc1cc(F)ccc1NC(=O)C1(C(=O)Nc2cccc(-c3c[nH]c4ncnc(N5CCOCC5)c34)c2)CC1 [Compound 24] | 1190 ± 231 nM | – | 6.394% and 5.578% | 30.1593% and 37.3588% | 91.3884% and 99.1893% | 98.0109% and 87.3375% | 102.16% and 100.865% | 98.4037% and 99.8706% | 99.6435% and 101.436% | – | 101.258% and 60.2522% | 66.9115% and 76.4371% |
